Experiments:
left atrium = assay: Action on extracted guinea pigs' hearts: left atrium sample (systole force); design: species or system Hartley guinea pigs; details: electrically stimulated; for Systole Forces 10^-4(M): suppression at 10^-4 M; for Systole Forces 10^-5(M): suppression at 10^-5 M
Source text: (§1) Stunned by receiving a blow on the heads, Hartley guinea pigs (weighing 300-400 g) were fixed on the back regions to extract their hearts. Each of the extracted hearts was placed in a beaker containing the same Krebs-Henseleit solution as used in Test Example 4 and supplied with 95% O₂-5% CO₂ gases, thereby stripping it of blood deposits, and was then passed into a sample forming glass vessel. This vessel was previously filled with a Krebs-Henseleit solution and the above gaseous mixture continued to be supplied thereto during preparing the sample.
(§2) In order to prepare the sample, the right and left atria were cut out of the ventricular muscle along the atriventricular sulcus from the center of both the right and left auricles.
The extracted left atrium was fixed with a micro wire clamp through both the auricles in a Magnus tube supplied with 95% O₂ - 5% CO₂ gases, containing 30 ml of a Krebs-Henseleit solution and maintained at a solution temperature of 32±1°C, and then suspended therein under a checking tension of ca. 0.25 g. While a platinum bipolar electrode attached to the above-mentioned micro wire clamp was in contact with the atrium, stimuli were given to it by 1-Hz, 2-msec. and 10-V rectangular waves derived through an electrical stimulator and an isolator to record the movement of said atrium with an FD pickup connected with it through silk thread.
(§3) The actions of the present and control compounds on the right (counting the heart rate) and left (measuring the systole force) atria are reported below.

right atrium = assay: Action on extracted guinea pigs' hearts: right atrium sample (heart rate); design: species or system Hartley guinea pigs; details: for Heart Rates 10^-4(M): suppression at 10^-4 M; for Heart Rates 10^-5(M): suppression at 10^-5 M
Source text: as §1, §2
The thus extracted right atrium was suspended in a Magnus tube with a tension of 0.2 to 0.3 g, said tube supplied with 95% O₂ - 5% CO₂ gases, containing 10 ml of a Krebs-Henseleit solution and maintained at 32±1°C. The contraction of the sample was recorded on a recorder through an FD pickup simultaneously with counting and recording the beat with an instantaneous cardiograph unit.
as §3

platelet aggregation = assay: Ex vivo action on inhibiting platelet aggregation after intravenous administration; format: in vivo, rat; details: inhibition of platelet aggregation relative to control; 30.0 mg/kg intravenously, blood gathered five minutes after; inducer collagen
Method: Five minutes after the test compound had been intravenously administered to the tail of a rat, blood was gathered from the descending aorta of the rat which was lightly etherized. Added to this blood was citric acid (3.8% sodium citrate) in a volume ratio of 1/10.
The thus treated blood was centrifuged at 1500 rpm for 5 minutes to obtain a supernatant fluid in the form of PRP. The residues were then again centrifuged at 4°C and 3000 rpm for 10 minutes to obtain a supernatant fluid in the form of PPP. For the platelet aggregation test, NAB HEMA TRACER 601 (Model PAT-60 made by Niko Bioscience Co., Ltd.) was used. […] of PRP were put in a PRP cuvette having a stirrer bar with the transmittance set at 0%, while 300 µl of PPP were put in a PPP cuvette with the transmittance set at 100%. After 1-minute preincubation, 20 µl of an aggregation inducer (collagen or ADP) were introduced.
A control group, to which dimethylacetamide and tartaric acid in a ratio of 2/3 were given in a quantity of 1 ml/kg, was treated similarly to the test group. Upon the addition of the aggregation inducer, a maximum transmittance change was read to find a platelet aggregation change in %. […] Table 3 sets out the results, from it is noted that the present compounds have a significant action on inhibiting platelet aggregation.

CC(C)NCC(O)COc1cccc2ccccc12 (stereo not shown) [A, propranolol]
Systole Forces 10^-4(M) (left atrium): ++ (++ indicates 20% or more suppression) | Systole Forces 10^-5(M) (left atrium): ++ (++ indicates 20% or more suppression) | Heart Rates 10^-4(M) (right atrium): ++ (++ indicates 20% or more suppression) | Heart Rates 10^-5(M) (right atrium): ++ (++ indicates 20% or more suppression)

CC(=O)Oc1ccccc1C(=O)O [Aspirin]
inhibition of collagen-induced platelet aggregation (platelet aggregation): 77%

CC(C(O)c1ccc(O)cc1)N1CCC(Cc2ccccc2)CC1 (stereo not shown) [B, ifenprodil]
Systole Forces 10^-4(M) (left atrium): + (+ 10-20% suppression) | Systole Forces 10^-5(M) (left atrium): - (- 0% suppression) | Heart Rates 10^-4(M) (right atrium): ++ (++ indicates 20% or more suppression) | Heart Rates 10^-5(M) (right atrium): ++ (++ indicates 20% or more suppression)

COc1ccc2c(c1)c(CC(=O)O)c(C)n2C(=O)c1ccc(Cl)cc1 [Indomethacin]
inhibition of collagen-induced platelet aggregation (platelet aggregation): 49%

From EP0485219B1, “Medicaments for preventing and treating circulatory organ diseases containing spiro-3-heteroazolidine compounds” (SANWA KAGAKU KENKYUSHO CO., LTD., priority 1990, dated 1992)
